Test results from ChEMBL document CHEMBL1130980, “Novel antiproliferative falcarindiol furanocoumarin ethers from the root of Angelica japonica” (1998).
In brackets after ≈: the same amount, converted by molar mass.

assay: Inhibitory activity in MTT assay against MK-I cell; type: functional; settings: Homo sapiens, read-out: ED50 (the source's name)

SMILES | EC50 [µg/mL]
C=CC(O)C#CC#CC(O)/C=C\C(O)CCCCCC (centres undefined) | 2.2 (≈ 7.96 µM)
C=C[C@H](O)C#CC#CC(/C=C\CCCCCCC)OC(C)=O (some centres undefined) | 3.2 (≈ 10.6 µM)
C=C[C@H](O)C#CC#CC/C=C\CCCCCCC [FALCARINOL] | 0.3 (≈ 1.23 µM)
C=CC(O)C#CC#C[C@@H](O)/C=C\CCCCCCC (single isomer, unassigned) [FALCARINDIOL] | 3.2 (≈ 12.3 µM)
